Measurements from PubChem BioAssay (NCI).
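At the GI50, growth is halved. The concentration for full growth arrest is given as TGI.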

Experiments:
Test in all cases: DTP human tumour cell line panel, 384-well format
[1] = system: DU-145 prostate
[2] = system: EKVX NSCLC
[3] = system: HCC-2998 colon
[4] = system: MDA-MB-231 breast
[5] = system: MOLT-4 leukemia
[6] = system: NCI-H23 lung
[7] = system: NCI-H522 lung
[8] = system: OVCAR-4 ovarian
[9] = system: RPMI-8226 leukemia
[10] = system: RXF 393 renal
[11] = system: SF-295 CNS
[12] = system: SK-MEL-2 melanoma
[13] = system: SR leukemia

O=c1[nH]nc2c3c(cccc13)NC(CN1Cc3ccccc3C1)=N2
GI50 [1]: 2.96 µM | TGI [1]: 24.1 µM | GI50 [2]: 3.1 µM | TGI [2]: > 100 µM | GI50 [3]: 3.34 µM | TGI [3]: 17.9 µM | GI50 [4]: 2.81 µM | TGI [4]: 14.5 µM | GI50 [5]: 2.5 µM | TGI [5]: 7.73 µM | GI50 [6]: 2.27 µM | TGI [6]: 15.3 µM | GI50 [7]: 2.49 µM | TGI [7]: 7.83 µM | GI50 [8]: 2.14 µM | TGI [8]: 12 µM | GI50 [9]: 13.8 µM | TGI [9]: > 100 µM | GI50 [10]: 2.26 µM | TGI [10]: 7.28 µM | GI50 [11]: 10.7 µM | TGI [11]: > 100 µM | GI50 [12]: > 87.1 µM | TGI [12]: > 100 µM | GI50 [13]: 2.36 µM | TGI [13]: 8.2 µM
